Test results published in ChEMBL document CHEMBL4385651, “Identification and characterization of the first fragment hits for SETDB1 Tudor domain” (Bioorg Med Chem, 2019).
Activity calls are given as the source filed them. The calls are words filed in the database; no cut-off is given here. Where a SMILES comes first, the peptide text is derived from it. [ ]: non-standard residue; d: D form. The star is where a group is joined. X1 = CC(=O)NCc1ccccc1-n1c(C)nnc1CN*; Lys(Me2) = CN(C)CCCC[C@H](N)C(=O)O

Key:
[1] = molecular target: T1, Histone-lysine N-methyltransferase SETDB1 (Homo sapiens, UniProt Q15047); assay: Binding affinity to N-terminally biotinylated human SETDB1 Tudor domain (197 to 403 residues) expressed in Escherichia coli BL21(DE3)-pRARE2 cells by SPR analysis
[2] = molecular target: T1, Histone-lysine N-methyltransferase SETDB1; assay: Binding affinity to N-terminal His6-tagged human SETDB1 Tudor domain (197 to 403 residues) expressed in Escherichia coli BL21(DE3)-pRARE2 cells by ITC assay
[3] = molecular target: T1, Histone-lysine N-methyltransferase SETDB1; assay: Binding affinity to N-terminal His6-tagged human SETDB1 Tudor domain (197 to 403 residues) expressed in Escherichia coli BL21(DE3)-pRARE2 cells assessed as induction of HSQC shift at 5 mM by 1H-15 N HSQC-TROSY NMR spectroscopy
[4] = molecular target: T1, Histone-lysine N-methyltransferase SETDB1; assay: Binding affinity to N-terminal His6-tagged human SETDB1 Tudor domain (197 to 403 residues) expressed in Escherichia coli BL21(DE3)-pRARE2 cells assessed as induction of HSQC shift at 10 mM by 1H-15 N HSQC-TROSY NMR spectroscopy

| Kd [1] | Activity [3] | Activity [4] | Compound | Kd [2] |
| --- | --- | --- | --- | --- |
| 2.5 mM |  |  | CC(=O)NCc1cc(Cl)ccc1-n1c(C)nnc1C |  |
|  | Active |  | Cc1nnc2n1-c1ccccc1COC2 |  |
|  | inactive |  | CNC(=O)NCc1ccccc1-n1c(C)nnc1C |  |
| 3.5 mM | Active |  | CC(=O)NCc1ccccc1-n1c(C)nnc1C | 3.5 mM |
|  |  | > 0.2 ppm | CC(C)(C)NC(=O)[C@@H]1Cc2ccccc2CN1 |  |
| 2.7 mM |  |  | CC(=O)NCc1cc(Br)ccc1-n1c(C)nnc1C |  |
| 7.7 mM |  |  | CC(=O)NCc1cc(C)ccc1-n1c(C)nnc1C |  |
|  | inactive |  | Cc1nnc(C)n1-c1ccccc1C(=O)O |  |
| 10 mM |  |  | CC(=O)NCc1cc(C#N)ccc1-n1c(C)nnc1C |  |
| 1.27 mM | Active |  | CC(=O)NCc1ccccc1-n1c(C)nnc1CNC(=O)CNC(=O)[C@@H](NC(=O)[C@H](CO)NC(=O)[C@@H](N)CCCCN(C)C)[C@@H](C)O (H-[Lys(Me2)]STG-X1) |  |

| Compound | Kd [1] | Activity [3] | Activity [4] | Kd [2] |
| --- | --- | --- | --- | --- |
| Cc1nnc(C)n1-c1ccccc1CNS(C)(=O)=O | 4 to 17 mM | Active |  | 4 to 17 mM |
